Two compounds from patent EP4772520A1, “NOVEL PRODRUG-TYPE ANTICANCER AGENT TARGETING CANCER-SPECIFIC ENZYME ACTIVITY” (priority 2023, dated 2025) can be followed below.

The conditions of series [1]: for histological findings (organ damage): summary; for biochemical test findings / blood cell test findings: vs Vehicle; for body weight loss: 40 mg/kg i.v. three times a week for three weeks, at maximum by the final day; for RETICULOCYTE COUNT: blood cell classification, Average. The procedure: For the Vehicle group, a corresponding amount of DMSO was administered.
After blood was collected on day 22 and then euthanized, the liver, kidney, and spleen were taken out and their weights were compared.

The subject of series [2] is luciferase-expressing A549 cells. Briefly: Therapeutic experiment 2 in A549 lung cancer orthotopic transplantation model. The class given is in vivo, mice. Conditions: i.v. 40 mg/kg 5 times then 80 mg/kg 7 times every other day; for tumor suppression effect (luciferin/luciferase chemiluminescence): vs Vehicle. As for the experimental part: Using SN38-βGal and SN38-βGlcNAc, the dose was increased to verify the therapeutic effect in the lung cancer orthotopic transplantation model. Whether the tumor suppression effect was confirmed was evaluated as compared with the Vehicle group (DMSO administration) by separating the SN38-βGal and SN38-βGlcNAc administration groups. The evaluation was performed on luciferase-expressing A549 cell […] mice using BALB/cAJcl-nu/nu with n = 3 for the Vehicle group, n = 4 for the SN38-βGal group, and n = 5 for the SN38-βGlcNAc group. The administration form was intravenous administration (i.v.).
For administration, 40 mg/kg was administered 5 times in total every other day, and then 80 mg/kg was administered 7 times in total every other day. The tumor burden was determined by evaluating the luciferin/luciferase chemiluminescence value. The endpoint was a significant body weight loss (20% loss).
A specific procedure of the therapeutic experiment is shown below. • (1) Model mice were created by the following operation using BALB/cAJcl-nu/nu (7 weeks old). The skin of the chest was incised, and the skin was subcutaneously detached, then luciferase-expressing A549 cells 2 × 10^7 cells/mL (50 µL, 5% Matrigel) was injected from the intercostal pleura to the left lung. After injection, the skin was sutured. • (2) After 1 week, the formation of cancer was confirmed by luciferin/luciferase chemiluminescence, and the intravenous administration of the drug was started. The drug was prepared by dissolving a 200 mM of DMSO stock in PBS, and administered in a total amount of 100 µL. 3 mg (200 µL) of luciferin was administered by intraperitoneal administration, and anesthetized with isoflurane. Thereafter, the chemiluminescent value at 20 minutes after administration was measured by an in vivo imaging device. • (3) On the day of evaluation, the tumor burden was evaluated by luciferin/luciferase chemiluminescence. • (4) After completion of the treatment, HMRef-βGlcNAc, 5 mg/kg (100 µL PBS) was administered by intravenous administration. 30 minutes after administration, the sternum was incised, and the lungs were taken out. • (5) The cancer lesion was fluorescently imaged by an in vivo fluorescence imaging device, and comparison between the Vehicle and the administration group was performed.

A short description of series [3]: Evaluation of locomotion after administration of drug. Conditions: intravenous administration of 40 mg/kg, n = 4, 15 minutes from 1 minute after administration. The class given is in vivo. The procedure:
The momentum after drug administration was compared (n = 4).
Fig. 22 illustrates results of locomotion evaluation after drug administration. a of Fig. 22 illustrates the head movement distance for 15 minutes from 1 minute after administration in each group. The drug is administered intravenously at 40 mg/kg (n = 4). b of Fig. 22 illustrates an example of a movement trajectory for 15 minutes from 1 minute after administration in each group. c of Fig. 22 illustrates an example of a movement distance for each time from 1 minute after administration in each group.

Series [4] has as its system luciferase-expressing A549 cells. Briefly: Therapeutic experiment 1 in A549 lung cancer orthotopic transplantation model. The class given is in vivo, mice. Conditions: 40 mg/kg i.v., 3 times a week; for tumor suppression effect (luciferin/luciferase chemiluminescence): vs Vehicle. As for the experimental part:
The administration form was intravenous administration (i.v.). The dose was 40 mg/kg, and administration was performed 3 times a week for 4 times. The tumor burden was determined by evaluating the luciferin/luciferase chemiluminescence value. The endpoint was the time point of significant body weight loss (20% loss).
A specific procedure of the therapeutic experiment is shown below. • (1) Model mice were created by the following operation using BALB/cAJcl-nu/nu (7 weeks old). The skin of the chest was incised, and the skin was subcutaneously detached, then luciferase-expressing A549 cells 2 × 10^7 cells/mL (50 µL, 5% Matrigel) was injected from the intercostal pleura to the left lung. After injection, the skin was sutured. • (2) After 17 days, the formation of cancer was confirmed by luciferin/luciferase chemiluminescence, and the intravenous administration of the drug was started. The drug was prepared by dissolving a 200 mM of DMSO stock in PBS, and administered in a total amount of 100 µL. 3 mg (200 µL) of luciferin was administered by intraperitoneal administration, and anesthetized with isoflurane. Thereafter, the chemiluminescent value at 20 minutes after administration was measured by an in vivo imaging device. • (3) On the day of evaluation, the tumor burden was evaluated by the body weight and the luciferin/luciferase chemiluminescence.

A further series has as its system JFCR39 cell panel. Put plainly: Cytotoxicity test using JFCR39 cell panel (sulforhodamine B). The class given is cell-based. Conditions: 39 cell lines, 48 hours; for GI50 value: comparison with SN38 and CPT-11. As for the experimental part:
The cancer cells were seeded in a 96 well plate, and on the next day, the drug solution was added according to the dilution series, and after culturing for 2 days (48 hours), cell proliferation was determined by colorimetric assay using sulforhodamine B.
Each cancer cell was seeded in a 96 well plate, and on the next day, the drug solution was added according to the dilution series, and after culturing for 2 days (48 hours), cell proliferation was measured by colorimetric quantification with sulforhodamine B.

Each structure is given as a SMILES string.

For `CCc1c2c(nc3ccc(O[C@@H]4O[C@H](CO)[C@H](O)[C@H](O)[C@H]4O)cc13)-c1cc3c(c(=O)n1C2)COC(=O)[C@]3(O)CC` [SN38-βGal], in series [1] (40 mg/kg i.v. repeated), the “Histological findings in kidney” value is recorded as “organ damage to the kidney was not observed”, the “Histological findings in large intestine” value is recorded as “the side effects were very mild as compared with CPT-11”, the “Histological findings in liver” value is reported as “organ damage to the liver was not observed” and the “Histological findings in small intestine” value was “the side effects were very mild as compared with CPT-11”. Besides, in series [1] (40 mg/kg i.v. repeated), the “Histological findings in spleen” value is “organ damage to the spleen was very mild”; the “histological findings (organ damage)” value is “no organ damage was observed in the small intestine, large intestine, kidney, liver, and spleen”; the biochemical test findings entry is “a slight decrease in AST and ALT values was observed”; the “blood cell test findings” value was “a slight increase in eosinophils and a decrease in basophils were estimated”. Further, the “RETICULOCYTE COUNT” value in series [1] (40 mg/kg i.v. repeated) came to 220300 µL⁻¹. Further, the body weight loss result in series [1] was “significant body weight loss was not observed”. Further, in series [2], the body weight result is reported as “the body weight loss was not found in the first 2 weeks” and the “tumor suppression effect (luciferin/luciferase chemiluminescence)” value is “the tumor growth was significantly suppressed in all mice”. In addition, the “locomotion after drug administration” value in series [3] is listed as “these decreases in the locomotion were hardly observed”. For the same compound, in series [4], the body weight result was “the slight body weight loss was found, but it was not remarkable as in CPT-11” and the “tumor suppression effect (luciferin/luciferase chemiluminescence)” value is given as “tended to suppress tumor growth as in the CPT-11 administration group”. In the series with JFCR39 cell panel, the “suppression of cell proliferation” value is on record as “suppressed proliferation of almost all cancer cells”; the GI50 value result is “close to SN38 and lower than CPT-11”.

On to `CCc1c2c(nc3ccc(O[C@@H]4O[C@H](CO)[C@@H](O)[C@H](O)[C@H]4NC(C)=O)cc13)-c1cc3c(c(=O)n1C2)COC(=O)[C@]3(O)CC` [SN38-βGlcNAc], for which, in series [1] (40 mg/kg i.v. repeated), the “Histological findings in kidney” value was “organ damage to the kidney was not observed”, the “Histological findings in large intestine” value is “the side effects were very mild as compared with CPT-11”, the “Histological findings in liver” value is reported as “organ damage to the liver was not observed” and the “Histological findings in small intestine” value is “the side effects were very mild as compared with CPT-11”. In series [1] (40 mg/kg i.v. repeated), the “Histological findings in spleen” value is listed as “organ damage to the spleen was very mild”; the “histological findings (organ damage)” value was “no organ damage was observed in the small intestine, large intestine, kidney, liver, and spleen”; the biochemical test findings result was “slight increases in urea nitrogen and creatinine were observed”; the “blood cell test findings” value was “an increase in eosinophils and a decrease in basophils were estimated”. The “RETICULOCYTE COUNT” value in series [1] (40 mg/kg i.v. repeated) was determined as 242300 µL⁻¹. For the same compound, the “organ weight (liver, kidney, spleen)” value in series [1] (40 mg/kg i.v. repeated, day 22, vs Vehicle) is reported as “An increase in spleen weight was observed”. Moreover, in series [1], the body weight loss result is “significant body weight loss was not observed”. Besides, in series [2], the body weight result is “the body weight loss was not found in the first 2 weeks” and the “tumor suppression effect (luciferin/luciferase chemiluminescence)” value was “the tumor growth was significantly suppressed in all mice”. Further, the “locomotion after drug administration” value in series [3] is “these decreases in the locomotion were hardly observed”. Also, in series [4], the body weight entry is reported as “the slight body weight loss was found, but it was not remarkable as in CPT-11” and the “tumor suppression effect (luciferin/luciferase chemiluminescence)” value is “tended to suppress tumor growth as in the CPT-11 administration group”. Besides, in the series with JFCR39 cell panel, the “suppression of cell proliferation” value is listed as “suppressed proliferation of almost all cancer cells”; the GI50 value result is “close to SN38 and lower than CPT-11”.
